Data published in US6787564B2, “Optically active clausenamides, process of the preparation thereof, pharmaceutical composition containing the same and their medical use” (Institute of Materia Medica, Chinese Academy of Medical …, priority 2002, dated 2004).

Columns and labels:
isolated mitochondria = assay: Bax α induced cytochrome c release from isolated mitochondria; assay type: biochemical
Text: Studies have shown that the widely existing cytochrome c plays an important role in inducing apoptosis. Cytochrome c is the water soluble cytochrome within the cell and existed at the outside of the mitochondria inner membrane. Cytochrome c could be released into the cytoplasm from the mitochondrial to activate the apoptotic program. This study first purified the His-tagged Bax protein from the bacteria by the Metal Affinity method. When added to the isolated mitochondria, it caused a significant decrease of mitochondrial cytochrome c content (74.43±5.69 ug/mg, pro vs 50.2±3.65 ug/mg pro, p<0.01). […] It means that (−) clausenamide may also act directly on mitochondrial itself to exert its antiapoptotic activity independent Bcl-2. The exact mechanism of action still remains to be determined.

Bcl-2 = Bcl-2 expression level by western blot in 6-OHDA treated Bax α high expressing PC12 cells; assay type: cell-based; conditions: 10^−7M, 10^−6M; 24 hours after 6-OHDA treatment
Text: It means that Bax α expression may promote the production of reactive oxygen species. The antiapoptotic effect of (−) clausenamide may be attributed to its reduction of the mitochondrial MDA level and the increase of mitochondrial GSH level. The increased mitochondrial GSH may be the result of the increased Bcl-2 level. As Bcl-2 itself is not an antioxidant, it may promote the closing of PT pores, and form heterodimers with Bax α and protect the mitochondria from injury and thus reduce the production of reactive oxygen, species.

A β 25-35 treated rats = assay: Morris water maze, A β 25-35 induced impairment of memory; assay type: in vivo
[1] = system: dentate gyrus of hippocampus; assay: induction of LTP in hippocampal of rat (population spike amplitude); assay type: in vivo, SD rats; conditions: I.C.V.; means ± SD
Text: Adult male SD rats were anesthetized to maintain a surgical level. A stainless steel cannula-recording electrode was placed in DG (dentate gyrus) of hippocampus using a stereotaxic instrument. The combination of cannula-recording electrode was constructed by insulating the outside of the cannula, except at the tip and top. In the top noninsulated area, a stainless steel wire was wrapped around the cannula and connected to the amplifier via an amphenol connector. The four pairs optically active clausenamides shown in table 9 was delivered by I.C.V. Responses were evoked via direct stimulation of the performant path (PP) using a stainless steel bipolar stimulating electrode. Constant current stimulation provided by a stimulator was delivered to the stimulating electrode through a Stimulus Isolation Unit.
The stimulating electrode was adjusted until a characteristic EPSP was observed under constant current. The evoked responses were amplified on a series alternating current preamplifier, using a microcomputer, and then stored for off-line analysis using DataWave software. The current intensity that elicited a 50% maximal response in each animal was determined and used for all subsequent stimulation. To measure treatment effects, responses were evoked once every 30 sec throughout the entire experiment, and population spike amplitude(PSA) were calculated.

[2] = system: Bax α high expressing PC12 cells; assay: 6-OHDA induced apoptosis of Bax α high expressing PC12 cells (TUNEL, flowcytometry); assay type: cell-based; conditions: 6-OHDA 100 μM, without drug 49.9%
Text: 1. The Construction of pcDNA3-bax α Plasmid and its Transfection into the PC12 Cell Line
In order to increase the expression level of the transfected gene, we first cut some of the 3′ polyA signal sequences from the Bax α cDNA and constructed the intermediate plasmid pBluescript SK-Bax α (pA). Then cut the Bax α cDNA from the intermediate plasmid, religate with the eukaryotic expression plasmid pcDNA3 and obtained the pcDNA3-Bax α recombinant plasmid. […] The recombinated Bax α has −50 bp of 5′ untranslated region(5′-UTR), 576 bp of open reading frame (ORF), and 137 bp of 3′ untranslated region (3′-UTR). The 5′ methionine translation initiation region has the Kozak consensus sequences. So this plasmid may be used to transform the Bax α gene into the mammalian cells and guarantees highly expression of Bax α by using its strong promoter.
The Lipofectamine transfecting method was used to transfect the pcDNA3-Bax α into the PC12 cell line. G-418 was used to select the resistant cell clones. […] This experiment successfully produced the Bax α high expressing PC12 cell line.
Under normal condition, the Bax α high expressing cells had the same natural apoptosis rate with the neo transfected PC12 cells.

## CN1C(=O)[C@@H](O)[C@H](c2ccccc2)[C@@H]1[C@@H](O)c1ccccc1 [(−)clausenamide, 3S, 4R, 5R, 6S (−) Levoclausenamide]
Isolated mitochondria; 10^−5M, Bax alone 50.2±3.65
  mitochondrial cytochrome c content after Bax α induced release: 67.95±7.6 μg/mg pro
Isolated mitochondria; 10^−6M, Bax alone 50.2±3.65
  mitochondrial cytochrome c content after Bax α induced release: 61.7±5.3 μg/mg pro
Isolated mitochondria; 10^−7M, His-tagged Bax alone 50.2±3.65, no Bax 74.43±5.69
  mitochondrial cytochrome c content after Bax α induced release: 58.73±3.77 μg/mg pro
Bcl-2
  Bcl-2 expression level: significantly increase the Bcl-2 expression level
A β 25-35 treated rats; 8,40 mg·kg^−1 daily for 8 days from the 8th day after icv 15 nmol aggregated A β 25-35
  spatial learning and memory impairment induced by aggregated A β 25-35: significantly ameliorated
A β 25-35 treated rats; (−),(+) clausenamide 8 and 40 mg.kg^−1, piracetam 400 mg·kg^−1, vs A β group
  initial heading angle on the 3th day (in words): significantly reduced the angle
A β 25-35 treated rats; (−),(+) clausenamide 8 and 40 mg·kg^−1, piracetam 400 mg.kg^−1, vs A β group
  latency for finding the platform, 3th to 5th day: shorter than that of A β group
A β 25-35 treated rats; A β 25-35 + drug at 8 mg/kg
  initial heading angle, training day 1: 89.7 ± 29.4
  initial heading angle, training day 2: 72.3 ± 19.8
  initial heading angle, training day 3: 46.5 ± 21.2
  initial heading angle, training day 4: 30.4 ± 14.8
  initial heading angle, training day 5: 17.6 ± 9.5
A β 25-35 treated rats; A β 25-35 + drug at 40 mg/kg
  initial heading angle, training day 1: 101.5 ± 24.3
  initial heading angle, training day 2: 83.5 ± 21.8
  initial heading angle, training day 3: 51.2 ± 18.7
  initial heading angle, training day 4: 28.4 ± 13.2
  initial heading angle, training day 5: 20.7 ± 8.7
A β 25-35 treated rats; from the 3th training day
  appearance of taxis and line search strategies: increased markedly
[1]
  PSA (%), 15 min: 131.8 ± 0.4%
  PSA (%), 30 min: 138.5 ± 8.9%
  PSA (%), 60 min: 158.1 ± 4.2%
[2]; 10^−5M
  apoptotic rate: 9.5%
[2]; 10^−6M
  apoptotic rate: 28.1%
[2]; 10^−7M
  apoptotic rate: 36.23%
